Test results reported in patent EP0034120A1, “Derivatives of phenoxy-phenoxy-carboxylic acids” (CIBA-GEIGY AG, priority 1980, dated 1981).

Legend:
Type in all cases: in vivo
[1] = test system: Weizen; test: Herbicidal action, pre-emergent application (greenhouse); parameters: key: 1 Pflanze abgestorben; 2-4 schwere Schädigung; 3: 2-4 schwere Schädigung; 2-4 schwere Schädigung; 5, 6 mittlere Schäden; 5, 6 mittlere Schäden; 7, 8 leichte Schäden; 7, 8 leichte Schäden; 9 Pflanze gedeiht normal, wie unbehandelte Kontrollpflanze; conditions: after 3 weeks
Method: (§1) wurde durchfolgende Versuche ermittelt: Herbizide Wirkung bei Applikation der Wirkstoffe vor dem Auflaufen der Pflanzen (pre-emergent) Im Gewächshaus werden Pflanzensamen in Blumentöpfe von ca. 11 cm Durchmesser gesät. […] Die Töpfe werden dann im Gewächshaus unter optimalen Bedingungen für das Pflanzenwachstum, regelmässiges Bewässern, einer Temperatur von 22-25°C und 50-70% relativer Luftfeuchtigkeit gehalten. Der Versuch wird nach 3 Wochen abgebrochen und der Zustand der Pflanzen gemäss dem folgenden EWRC (European Weed Research Councel) Bewertungsschema registriert: • 1 Pflanze abgestorben • 2-4 schwere Schädigung • 5, 6 mittlere Schäden • 7, 8 leichte Schäden • 9 Pflanze gedeiht normal, wie unbehandelte Kontrollpflanze.

[2] = test system: abutilon sp; test: as above; parameters: key: 1 Pflanze abgestorben; 2-4 schwere Schädigung; 3: 2-4 schwere Schädigung; 2-4 schwere Schädigung; 5, 6 mittlere Schäden; 5, 6 mittlere Schäden; 7, 8 leichte Schäden; 7, 8 leichte Schäden; 9 Pflanze gedeiht normal, wie unbehandelte Kontrollpflanze; conditions: after 3 weeks
Method: as §1

[3] = test system: amarantus retrofl.; test: as above; parameters: key: 1 Pflanze abgestorben; 2-4 schwere Schädigung; 3: 2-4 schwere Schädigung; 2-4 schwere Schädigung; 5, 6 mittlere Schäden; 5, 6 mittlere Schäden; 7, 8 leichte Schäden; 7, 8 leichte Schäden; 9 Pflanze gedeiht normal, wie unbehandelte Kontrollpflanze; conditions: after 3 weeks
Method: as §1

[4] = test system: viola tricolor; test: as above; parameters: key: 1 Pflanze abgestorben; 2-4 schwere Schädigung; 3: 2-4 schwere Schädigung; 2-4 schwere Schädigung; 5, 6 mittlere Schäden; 5, 6 mittlere Schäden; 7, 8 leichte Schäden; 7, 8 leichte Schäden; 9 Pflanze gedeiht normal, wie unbehandelte Kontrollpflanze; conditions: after 3 weeks
Method: as §1

[5] = test system: Reis; test: as above; parameters: key: 1 Pflanze abgestorben; 2-4 schwere Schädigung; 3: 2-4 schwere Schädigung; 2-4 schwere Schädigung; 5, 6 mittlere Schäden; 5, 6 mittlere Schäden; 7, 8 leichte Schäden; 7, 8 leichte Schäden; 9 Pflanze gedeiht normal, wie unbehandelte Kontrollpflanze; conditions: after 3 weeks
Method: as §1

[6] = test system: sinapis alba; test: as above; parameters: key: 1 Pflanze abgestorben; 2-4 schwere Schädigung; 3: 2-4 schwere Schädigung; 2-4 schwere Schädigung; 5, 6 mittlere Schäden; 5, 6 mittlere Schäden; 7, 8 leichte Schäden; 7, 8 leichte Schäden; 9 Pflanze gedeiht normal, wie unbehandelte Kontrollpflanze; conditions: after 3 weeks
Method: as §1

[7] = test system: chrysanthemum l.; test: as above; parameters: key: 1 Pflanze abgestorben; 2-4 schwere Schädigung; 3: 2-4 schwere Schädigung; 2-4 schwere Schädigung; 5, 6 mittlere Schäden; 5, 6 mittlere Schäden; 7, 8 leichte Schäden; 7, 8 leichte Schäden; 9 Pflanze gedeiht normal, wie unbehandelte Kontrollpflanze; conditions: after 3 weeks
Method: as §1

[8] = test system: beta vulgaris; test: as above; parameters: key: 1 Pflanze abgestorben; 2-4 schwere Schädigung; 3: 2-4 schwere Schädigung; 2-4 schwere Schädigung; 5, 6 mittlere Schäden; 5, 6 mittlere Schäden; 7, 8 leichte Schäden; 7, 8 leichte Schäden; 9 Pflanze gedeiht normal, wie unbehandelte Kontrollpflanze; conditions: after 3 weeks
Method: as §1

[9] = test system: chenopodium sp.; test: as above; parameters: key: 1 Pflanze abgestorben; 2-4 schwere Schädigung; 3: 2-4 schwere Schädigung; 2-4 schwere Schädigung; 5, 6 mittlere Schäden; 5, 6 mittlere Schäden; 7, 8 leichte Schäden; 7, 8 leichte Schäden; 9 Pflanze gedeiht normal, wie unbehandelte Kontrollpflanze; conditions: after 3 weeks
Method: as §1

[10] = test system: Baumwollpflanzen der Sorte Deltapine; test: Desiccation and defoliation action on cotton; conditions: Aufwandmenge 0,6 kg/ha, nach 14 Tagen; only a few dried-up leaves left on the plant
Excerpt: Im Gewächshaus wurden Baumwollpflanzen der Sorte Deltapine in Tontöpfen angezogen. Nach abgeschlossener Kapselbildung wurden sie mit wässrigen Zubereitungen der Wirkstoffe in einer Aufwandmenge, die 1,2, 0,6 und 0,3 kg/ha im Feld entspräche, gespritzt. Unbehandelte Pflanzen wurden als Kontrolle belassen. Die Auswertung des Versuches erfolgte 3, 7 und 14 Tage nach Applikation der Versuchssubstanz durch Bestimmen des Grades an Defoliation (% abgefallene Blätter) und an Dessikation (% Austrocknung der an der Pflanze verbleibenden Blätter).

SMILES | Zustand der Pflanzen (EWRC Bewertungsschema) ([1]; Aufwandmenge 2 kg/ha) | Zustand der Pflanzen (EWRC Bewertungsschema) ([1]; Aufwandmenge 4 kg/ha) | Zustand der Pflanzen (EWRC Bewertungsschema) ([2]; Aufwandmenge 2 kg/ha) | Zustand der Pflanzen (EWRC Bewertungsschema) ([2]; Aufwandmenge 4 kg/ha) | Zustand der Pflanzen (EWRC Bewertungsschema) ([3]; Aufwandmenge 2 kg/ha) | Zustand der Pflanzen (EWRC Bewertungsschema) ([3]; Aufwandmenge 4 kg/ha) | Zustand der Pflanzen (EWRC Bewertungsschema) ([4]; Aufwandmenge 2 kg/ha) | Zustand der Pflanzen (EWRC Bewertungsschema) ([4]; Aufwandmenge 4 kg/ha) | Zustand der Pflanzen (EWRC Bewertungsschema) ([5]; Aufwandmenge 2 kg/ha) | Zustand der Pflanzen (EWRC Bewertungsschema) ([5]; Aufwandmenge 4 kg/ha) | Zustand der Pflanzen (EWRC Bewertungsschema) ([6]; Aufwandmenge 2 kg/ha) | Zustand der Pflanzen (EWRC Bewertungsschema) ([6]; Aufwandmenge 4 kg/ha) | Zustand der Pflanzen (EWRC Bewertungsschema) ([7]; Aufwandmenge 2 kg/ha) | Zustand der Pflanzen (EWRC Bewertungsschema) ([7]; Aufwandmenge 4 kg/ha) | Zustand der Pflanzen (EWRC Bewertungsschema) ([8]; Aufwandmenge 2 kg/ha) | Zustand der Pflanzen (EWRC Bewertungsschema) ([8]; Aufwandmenge 4 kg/ha) | Zustand der Pflanzen (EWRC Bewertungsschema) ([9]; Aufwandmenge 2 kg/ha) | Zustand der Pflanzen (EWRC Bewertungsschema) ([9]; Aufwandmenge 4 kg/ha) | Wirkung (Defoliation und Dessikation) [10] [%]
COC(=O)CC(=O)C(C)Oc1cc(Oc2ccc(C(F)(F)F)cc2Cl)ccc1Cl (centres unmarked) [compound 3, 4-[3'-(2"-Chlor-4"-trifluormethylphenoxy)-6'-chlorphen-oxy]-propanoylessigsäure-methylester] | 9 | 9 | 6 | 6 | 1 | 1 | 3 | 1 | 7 | 6 | 2 | 1 | 1 | 1 | 1 | 1 | 1 | 1 | 90
CC(CCC(=O)O)Oc1cc(Oc2ccc(C(F)(F)F)cc2Cl)ccc1Cl (centres unmarked) [compound 6] | 9 | 9 | 2 | 1 | 1 | 1 | 1 | 1 | 8 | 8 | 1 | 1 | 2 | 1 | 1 | 1 | 1 | 1 | 
CCNC(=O)CCC(C)Oc1cc(Oc2ccc(C(F)(F)F)cc2Cl)ccc1Cl (centres unmarked) [compound 7] | 9 | 9 | 1 | 1 | 1 | 1 | 2 | 1 | 8 | 8 | 1 | 1 | 2 | 1 | 1 | 1 | 1 | 1 | 90
CCOC(=O)C=CC(C)Oc1cc(Oc2ccc(C(F)(F)F)cc2Br)ccc1Cl (centres unmarked) [compound 15] | 9 | 9 | 6 | 2 | 1 | 1 | 2 | 1 | 9 | 9 | 4 | 1 | 2 | 1 | 2 | 2 | 1 | 1 | 
